In PubChem BioAssay AID1963869 (Molecular Pharmacology Branch, DTP, NCI, 2024):
Several values for one entry are separate records, joined by “and”; a condition that tells them apart may be missing. Identical values can stand only once.

Tested on: KRAS patient-derived spheroids with HUVEC/MSC, viability
Experiment: Anticancer human tumor 323965-272-R-J2-PDC patient-derived pancreatic carcinoma cell line growth inhibition [KRAS2]
Conditions: for viability, T/C: stronger effect = lower value
Source text: Multicellular complex tumor spheroid response to RAS pathway inhibitors in combination with a targeted agents in patient-derived cell lines with oncogenic KRAS variants from multiple cancer types
A high-throughput screen of multi-cell type tumor spheroids was designed to identify active combinations of targeted small molecules and KRAS pathway inhibitors. Complex spheroids include a stromal component modeled by human endothelial cells (HUVEC) and fibroblasts modeled by human mesenchymal stem cells (MSCs). The concentration ranges selected for each drug and investigational agent were based upon clinically achievable concentrations if the clinical Cmax of the agent was known.
Compounds. The drugs and investigational agents: BI-3406 (NSC825286), BAY-293 (NSC824723), batoprotafib (TNO155; NSC825523), sotorasib (AMG 510; NSC818433), MRTX1257 (NSC819558), elimusertib (BAY 1895344; NSC800525), molibresib (GSK525762; NSC774829), temuterkib (LY3214996; NSC803410), venetoclax (NSC766270), alisertib (NSC759677), olaparib (NSC753686), talazoparib (NSC767125), erdafitinib (NSC781556), ipatasertib (NSC767898), cabozantinib (NSC761068), nintedanib (NSC756659), abemaciclib (NSC768073), docetaxel (NSC628503), trametinib (NSC758246), and sapanisertib (NSC764658) were obtained from the National Cancer Institute (NCI) Developmental Therapeutics Program Chemical Repository. The FDA-approved anticancer drug set is available from the Developmental Therapeutics Program. […] The stock solutions were prepared in dimethyl sulfoxide (DMSO, Sigma-Aldrich, St. Louis, MO, cat. D2650) at 800-fold the tested concentration and stored at -70 degrees C prior to their use. All drugs and investigational agents were tested over a range starting from a high concentration at or near the clinical Cmax and decreasing in half-log increments. If the clinical Cmax for an agent had not been determined, the highest concentration tested was 10 microM.
Cell Culture. All cells were maintained in an incubator at 37 degrees C and 5% CO2 with 95% humidity. The PDC lines were cultured according to standard operating procedures established by the NCI PDMR (https://pdmr.cancer.gov/sops/default.htm). Briefly, all PDCs were thawed and cultured in Matrigel-coated flasks prepared with a working solution of 1X Ham's F-12 nutrient mix, without supplementation (Invitrogen, Waltham, MA, cat. 11765054), 100 U/mL penicillin-streptomycin (Invitrogen, cat. 15140122), and 2.5% Matrigel (Corning Inc., Corning, NY, cat. 354248) for the first three passages. All PDCs were cultured in complete DMEM/F-12 media containing advanced DMEM/F-12 (Invitrogen, cat. 12634028), 4.9% defined fetal bovine serum, heat inactivated (HyClone Laboratories Inc., Logan, UT, cat. SH30070.03HI), 389 ng/mL hydrocortisone (Sigma-Aldrich, cat. H4001), 9.7 ng/mL human EGF recombinant protein (Invitrogen, cat. PHG0313), 23.4 microg/mL adenine (Sigma-Aldrich, cat. A2786), 97.3 U/mL penicillin-streptomycin (Invitrogen, cat. 15140122), 1.9 mM L-glutamine (Invitrogen, cat. 25030081), and 9.7 microM Y-27632 dihydrochloride (Tocris Bioscience, Bristol, United Kingdom, cat. 1254). The PDCs were cultured in complete DMEM/F12 media without 9.7 microM Y-27632 dihydrochloride for at least two passages prior to the screen. The established cell line HOP-62 was cultured in RPMI 1640 medium, HEPES (Invitrogen, cat. 22400105) with 10% defined fetal bovine serum (HyClone Laboratories Inc., cat. SH30070.03) and 2 mM L-glutamine (Invitrogen, cat. 25030081). The pooled donor HUVEC were cultured in endothelial cell growth medium 2 (PromoCell, Heidelberg, Germany, cat. C-22011) and the hMSC were cultured in mesenchymal stem cell growth medium 2 (PromoCell, cat. C-28009). For all experiments, HUVEC and hMSC were used at passages </=5, while the malignant cell lines were used at passages </=15. […]

[1] = curve of first compound, second compound 0.1 µM
[2] = curve of first compound, second compound 0.316 µM
[3] = curve of first compound, second compound 1 µM
[4] = curve of first compound, second compound 3.16 µM
[5] = second compound 0.1 µM, first compound 0.0316 µM
[6] = second compound 0.1 µM, first compound 0.1 µM
[7] = second compound 0.1 µM, first compound 0.316 µM
[8] = second compound 0.1 µM, first compound 1 µM
[9] = second compound 0.1 µM, first compound 3.16 µM
[10] = second compound 0.1 µM, first compound 10 µM
[11] = second compound 0.316 µM, first compound 0.0316 µM
[12] = second compound 0.316 µM, first compound 0.1 µM
[13] = second compound 0.316 µM, first compound 0.316 µM
[14] = second compound 0.316 µM, first compound 1 µM
[15] = second compound 0.316 µM, first compound 3.16 µM
[16] = second compound 0.316 µM, first compound 10 µM
[17] = second compound 1 µM, first compound 0.0316 µM
[18] = second compound 1 µM, first compound 0.1 µM
[19] = second compound 1 µM, first compound 0.316 µM
[20] = second compound 1 µM, first compound 1 µM
[21] = second compound 1 µM, first compound 3.16 µM
[22] = second compound 1 µM, first compound 10 µM
[23] = second compound 3.16 µM, first compound 0.0316 µM
[24] = second compound 3.16 µM, first compound 0.1 µM
[25] = second compound 3.16 µM, first compound 0.316 µM
[26] = second compound 3.16 µM, first compound 1 µM
[27] = second compound 3.16 µM, first compound 3.16 µM
[28] = second compound 3.16 µM, first compound 10 µM
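Note: spheroids exposed to agents for 7 days.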
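Throughout, for viability, T/C: 100% = DMSO vehicle control viability.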

Structure (SMILES) | IC50 [1] | IC50 [2] | IC50 [3] | IC50 [4] | viability, T/C [5] | viability, T/C [6] | viability, T/C [7] | viability, T/C [8] | viability, T/C [9] | viability, T/C [10] | viability, T/C [11] | viability, T/C [12] | viability, T/C [13] | viability, T/C [14] | viability, T/C [15] | viability, T/C [16] | viability, T/C [17] | viability, T/C [18] | viability, T/C [19] | viability, T/C [20] | also measured
COc1cc(Nc2ncc3c(n2)-c2ccc(Cl)cc2C(c2c(F)cccc2OC)=NC3)ccc1C(=O)O | – | – | – | – | – | – | – | – | – | – | – | – | – | – | – | – | – | – | – | – | viability, T/C (compound 0.0316 µM): 91.7% [middle of 5 runs]; viability, T/C (compound 0.1 µM): 72.2% [middle of 5 runs]; viability, T/C (compound 0.316 µM): 45.2% [middle of 5 runs]; viability, T/C (compound 1 µM): 51.5% [middle of 5 runs]; viability, T/C (compound 3.16 µM): 65.7% [middle of 5 runs]; viability, T/C (compound 10 µM): 69% [middle of 5 runs]; IC50 (curve of compound): 10000 nM and > 10000 nM
CCNC(=O)CC1N=C(c2ccc(Cl)cc2)c2cc(OC)ccc2-n2c(C)nnc21 (configuration not stated) + COc1cc2nc(C)nc(NC(C)c3cc(N)cc(C(F)(F)F)c3)c2cc1OC1CCOC1 | 247 nM | 246 nM | 238 nM | 189 nM | 80.3% | 68.8% | 44.2% | 34.2% | 30.3% | 28.9% | 69.8% | 64.2% | 45.4% | 32.5% | 26.8% | 25.2% | 76.3% | 65.3% | 44.8% | 32% | IC50 (curve of first compound, second compound 10 µM): 170 nM; viability, T/C [21]: 30.2%; viability, T/C [22]: 25.5%; viability, T/C [23]: 74.5%; viability, T/C [24]: 58.8%; viability, T/C [25]: 43.9%; viability, T/C [26]: 29.3%; viability, T/C [27]: 26.2%; viability, T/C [28]: 26.6%; viability, T/C (second compound 10 µM, first compound 0.0316 µM): 72.8%; viability, T/C (second compound 10 µM, first compound 0.1 µM): 60.4%; viability, T/C (second compound 10 µM, first compound 0.316 µM): 37.7%; viability, T/C (second compound 10 µM, first compound 1 µM): 29%; viability, T/C (second compound 10 µM, first compound 3.16 µM): 28%; viability, T/C (second compound 10 µM, first compound 10 µM): 25.7%
CCNC(=O)CC1N=C(c2ccc(Cl)cc2)c2cc(OC)ccc2-n2c(C)nnc21 (configuration not stated) + C=CC(=O)N1CCN(c2nc(OCC3CCCN3C)nc3c2CCN(c2cccc4cccc(C)c24)C3)CC1CC#N | 101 nM | 240 nM | 111 nM | < 31.6 nM | 63.1% | 51.1% | 35.6% | 31.9% | 26.3% | 24.2% | 89.5% | 91.3% | 37.3% | 29.7% | 24.7% | 24.1% | 60.4% | 50.6% | 38.5% | 27% | IC50 (curve of first compound, second compound 0.0316 µM): 210 nM; viability, T/C (second compound 0.0316 µM, first compound 0.0316 µM): 75.3%; viability, T/C (second compound 0.0316 µM, first compound 0.1 µM): 59.5%; viability, T/C (second compound 0.0316 µM, first compound 0.316 µM): 46.3%; viability, T/C (second compound 0.0316 µM, first compound 1 µM): 30.4%; viability, T/C (second compound 0.0316 µM, first compound 3.16 µM): 26.4%; viability, T/C (second compound 0.0316 µM, first compound 10 µM): 27.2%; viability, T/C [21]: 22.6%; viability, T/C [22]: 22.5%; viability, T/C [23]: 10.5%; viability, T/C [24]: 6.25%; viability, T/C [25]: 3.72%; viability, T/C [26]: 0.16%; viability, T/C [27]: 1.28%; viability, T/C [28]: 0.88%
